Assay results from publication PMC8450341 (Frontiers in Physiology, 2021).
Entries after “also recorded” stand apart in the source; their conditions may differ. Like-named read-outs stand apart in the source and are kept apart here.

How the values were obtained:
[1] = test system: rat models of hypoxia-induced pulmonary hypertension; settings: cited from earlier work
bovine PH-fibs = test system: bovine PH-fibs; parameters: method as in Li et al., 2011; settings: ref Li et al., 2011; cited from earlier work
[2] = Serum pharmacokinetics after single oral dose in normoxic calves; settings: for ratio of metabolite AUC to vorinostat AUC: calves
Procedure: (§8) Pharmacokinetic parameters were calculated by a non-compartmental model using Phoenix WinNonlin v8.1 ([Wagner, 1993]).

[3] = cited from earlier work; for metabolite AUC relative to that of vorinostat: in humans
in vivo = settings: male, Holstein, bovine, serum, po, 235 mg
Procedure: as §8

[4] = test system: IL-6, CSF2, SDF1, IL1β, IL-1RA, TLR2, POSN mRNAs; assay: Pairwise qPCR of inflammatory and matrikine gene expression; type: in vivo, bovine calf; settings: hypoxic vorinostat-treated vs. untreated calf
Procedure: At the conclusion of the study period, calves were deeply anesthetized and euthanized. Tissue samples from right ventricle free wall and distal lung parenchyma were snap frozen in liquid nitrogen for laboratory analysis. RNA isolation and quantitative PCR were performed as described previously ([Frid et al., 2009]). mRNA abundance was quantitated relative to HPRT by the delta Ct method. The following primers were used (5′–3′). Fibronectin, Extracellular Domain A (ED-A Fn), Fwd:[…], Rev:[…]; Tenascin C (TnC), Fwd:G […], Rev:[…] TCCA; Osteopontin (SPPA), Fwd:[…] CACAGA, Rev:[…]; Periostin (POSTN), Fwd:[…], Rev:CAC […]; Skeletal muscle alpha-actin (ACTA1), Fwd:[…], Rev:GAAGGT […]; Brain natriuretic peptide (NPPB), Fwd:[…], Rev:[…]; Hypoxanthine ribosyl transferase (HPRT), Fwd:[…], Rev:[…].
Figure 2. Comparison of inflammatory and matrikine gene expression in vorinostat treated versus untreated hypoxic calves. mRNA abundance was quantitated as described in Methods. For each indicated mRNA, abundance in the vorinostat-treated PH calf was determined relative to that in the untreated PH calf (indicated by dotted line at unity).

HDAC1 = assay: Immunoblotting of HDAC abundance in RV and lung homogenates; type: in vivo, bovine calf; settings: vorinostat over initial 5 days of hypoxia, measured at end of 14 days hypoxic exposure, vs untreated PH
Procedure: At the conclusion of the study period, calves were deeply anesthetized and euthanized. Tissue samples from right ventricle free wall and distal lung parenchyma were snap frozen in liquid nitrogen for laboratory analysis. RNA isolation and quantitative PCR were performed as described previously ([Frid et al., 2009]). mRNA abundance was quantitated relative to HPRT by the delta Ct method. The following primers were used (5′–3′). […] TCCA; Osteopontin (SPPA), Fwd:[…]; Hypoxanthine ribosyl transferase (HPRT), Fwd:[…], Rev:[…].
Procedures for immunoblotting and densitometry were performed as described previously ([Li et al., 2011]). HDAC antibodies were obtained from Cell Signaling Technology (HDAC1, #5356; HDAC5, #20458).
(A) Immunoblotting HDAC abundance.

[5] = test system: brain natriuretic peptide (BNP) and skeletal muscle alpha-actin mRNAs; assay: Real-time PCR of genes in RV hypertrophic remodeling; type: in vivo, bovine calf
Procedure: (§1) At the conclusion of the study period, calves were deeply anesthetized and euthanized. Tissue samples from right ventricle free wall and distal lung parenchyma were snap frozen in liquid nitrogen for laboratory analysis. RNA isolation and quantitative PCR were performed as described previously ([Frid et al., 2009]). mRNA abundance was quantitated relative to HPRT by the delta Ct method. The following primers were used (5′–3′). Fibronectin, Extracellular Domain A (ED-A Fn), Fwd:[…], Rev:[…]; Tenascin C (TnC), Fwd:G […], Rev:[…] TCCA; Osteopontin (SPPA), Fwd:[…] […]
(§2) (A) Immunoblotting HDAC abundance. RV and lung homogenates were prepared and HDAC abundance was determined by immunoblotting as described in section “Materials and Methods.” Additional untreated control and hypoxic animals were analyzed in parallel for comparison. Protein abundance was quantitated densitometrically relative to beta-actin. *p < 0.05 vs. control (unpaired two-tailed t-test). […] Abundances of indicated mRNAs were quantitated by real-time PCR as described in section “Materials and Methods.” Animals used in the present study were analyzed together with samples from additional untreated hypoxic and normoxic calves (n = 4 each) that were managed according to the same animal protocols described in section “Materials and Methods,” and studied around the same period of time. […]

[6] = parameters: method as in Fraczek et al., 2013; settings: rats, oral; ref Fraczek et al., 2013; cited from earlier work
normoxic control calves [7] = assay: Echocardiography in normoxic vorinostat-treated control calves; type: in vivo, bovine calf
Text: (§3) The bovine calf hypoxia model of PH previously reported ([Stenmark et al., 1987]; [Lemler et al., 2000]; [Bartels et al., 2016]) consistently produces significant pulmonary hypertension (mean PAP > 100 mmHg) and subsequent tissue changes on post-mortem examination ([Stenmark et al., 1987]). Animals display blood gas PaO2 and PaCO2 values consistent to severe hypoxia and PH ([Stenmark et al., 1987]; [Lemler et al., 2000]). Male Holstein dairy calves at 7 days of age (45–50 kg) were sourced from a local dairy farm. This study utilized a case comparison design. […] Hypoxic calves (Groups 1 and 2) were exposed to hypobaric hypoxia at simulated elevation of 10,000 feet for 48–72 h to allow acclimation then exposed to hypobaric hypoxia at the study condition of 15,000 feet simulated elevation (PB = 430 mmHg, Hypo-Hyperbaric Chamber Facility, Colorado State University Department of Physiology). The standard exposure interval was 14 days at this elevation. Control normoxic calves remained at ambient Fort Collins pressure (4,950 feet PB = 630 mmHg).
(§4) This dosing regimen was selected to minimize adverse effects based on guidelines for human pediatric patients (Lia Gore MD, Center for Cancer and Blood Disorders, Children’s Hospital Colorado, personal communication.) Group 2 calves received no drug treatment. At this age, the calf digestive system has not matured and the abomasum functions as the sole stomach similar to humans.
(§5) Echocardiography was utilized for non-invasive sequential assessment of cardiopulmonary function as described previously ([Lemler et al., 2000]; [Bartels et al., 2016]). […] The progression of pulmonary hypertension was evaluated by sequential echocardiography at the study condition (15,000 feet or normoxia) on study days 4, 8 and terminal day 14. Parasternal long and short axis recordings were obtained over 3–4 cardiac cycles, together with M-mode traces as indicated, using GE Echo PACS (General Electric, Chicago, IL, United States) or MicroDicom^1 software. Echocardiographic findings consistent with PH (abnormal RV size and function), or interventricular septum abnormalities including abnormal motion or flattening were evaluated ([Boon, 2011]). Septal motion and flattening were further quantitated by eccentricity index EI on short-axis views with EchoPACS. Tricuspid or mitral valve regurgitation was scored qualitatively as trace, mild, moderate or severe. Global RV function was assessed qualitatively. When RV images on long-axis included the entire chamber, RV fractional area change (FAC) was calculated with EchoPACS. RV fractional shortening was measured from M-mode recordings using MicroDicom. Calves were monitored following each non-terminal echo procedure for recovery including standing and interacting normally, and normal milk intake.

[8] = test system: calves with hypoxia-induced pulmonary hypertension; assay: Hemodynamics by right heart catheterization, hypoxic calf; type: in vivo, bovine calf
Text: as §3, §4
(§6) Standard measurements of PAP and cardiac output were performed by right heart catheterization concurrent with the final echo in both the two normoxic and two hypoxic calves on study day 14 as described previously ([Stenmark et al., 1987]; [Lemler et al., 2000]).
(§7) Data were obtained from right heart catheterization as described in Materials and Methods. Standard units: Pressure, mm Hg; Cardiac output, L/min; PA, pulmonary artery.

[9] = cited from earlier work
normoxic control calves [10] = assay: Hemodynamics by right heart catheterization, normoxic calves; type: in vivo, bovine calf
Text: as §3, §4, §6, §7

[11] = test system: ED-A Fn, tenascin C, osteopontin and periostin mRNAs; assay: Real-time PCR of genes in pulmonary remodeling; type: in vivo, bovine calf
Procedure: as §1, §2

[12] = test system: calves with hypoxia-induced pulmonary hypertension; assay: Echocardiography in neonatal calf model of hypoxia-induced PH; type: in vivo, bovine calf
Text: as §3, §4, §5

[13] = parameters: method as in Fraczek et al., 2013; settings: dogs, oral; ref Fraczek et al., 2013; cited from earlier work
[14] = test system: calves in normoxic or hypoxic conditions; assay: Clinical signs and blood chemistry during and after dosing; type: in vivo, bovine calf
Text: as §4

[15] = ref Cho et al., 2010, Cavasin et al., 2012
[16] = single oral dose, four normoxic calves
[17] = human adult dose of 400 mg daily, ref Iwamoto et al., 2013
[18] = Hypoxic vorinostat treated calf, study day 14
[19] = vorinostat-treated PH calf, day 14
[20] = Normoxic vorinostat treated #1, study day 14
[21] = Normoxic vorinostat treated #2, study day 14

## CCCC(CCC)C(=O)O [valproic acid]
[1]; [15]
  RV hypertrophy: attenuated
[1]; ref Zhao et al. (2012)
  hypoxia-induced PH in rats: inhibited

## CCC(=O)CCCCC[C@@H]1NC(=O)[C@H]2CCCCN2C(=O)[C@H]([C@@H](C)CC)NC(=O)[C@H](Cc2cn(OC)c3ccccc23)NC1=O [apicidin]
Bovine PH-fibs
  activated fibroblast phenotype: reversed

## O=C(CCCCCCC(=O)Nc1ccccc1)NO[C@@H]1O[C@H](C(=O)O)[C@@H](O)[C@H](O)[C@H]1O [Vorinostat glucoronide]
[2]; single oral dose
  ratio of metabolite AUC to vorinostat AUC: ~3 fold
[3]; ref Iwamoto et al., 2013
  metabolite AUC relative to that of vorinostat: 3–4 times

## Nc1ccccc1NC(=O)c1ccc(CNC(=O)OCc2cccnc2)cc1 [MS-275]
[1]; [15]
  RV function: preserved
  RV hypertrophic and pro-fibrotic remodeling: attenuated

## O=C(O)CCC(=O)Nc1ccccc1 [Succininanilic Acid, succinanilic acid]
[2]; single oral dose
  ratio of metabolite AUC to vorinostat AUC: ~20 fold
[3]; ref Iwamoto et al., 2013
  metabolite AUC relative to that of vorinostat: 10–13 times
In vivo
  Tmax: 6 h

## Nc1ccccc1NC(=O)c1ccc(CNc2nccc(-c3cccnc3)n2)cc1 [MCD-0103]
[1]; [15]
  RV function: preserved
  RV hypertrophic and pro-fibrotic remodeling: attenuated

## O=C(CCCCCCC(=O)Nc1ccccc1)NO [vorinostat, suberanilohydroxamic acid]
[4]
  expression of pro-inflammatory mRNAs including IL-6, CSF2, SDF1, IL1β, IL-1RA, TLR2, and the matrikine POSN: reduced expression
[2]; after single oral administration
  time until serum vorinostat returns to undetectable levels: ≤ 24 h
[2]; [16]
  integrated area under the concentration × time curve: ~1,500 nM•h
  peak serum concentration: ~400 nM
  time to peak serum concentration: ~4 h
[3]; [17]
  AUC: 4,000–6,000 nM•h
  Cmax: 1000 to 1500 nM
[3]; humans and other animal species, ref Mohamed et al., 2012, Fraczek et al., 2013, Iwamoto et al.
  half-life: approximately 2 h
[3]; humans, ref Fraczek et al., 2013
  Bioavailability of oral vorinostat: 43%
[3]; post-fed humans, ref Iwamoto et al., 2013
  Tmax: ~4 h
Bovine PH-fibs
  activated fibroblast phenotype: reversed
HDAC1
  expression of HDAC1 in both lung and RV: tended to decrease
[5]; hypoxic calf, compared to calves with untreated PH
  RV expression of BNP and skeletal muscle alpha-actin mRNAs: tended to decrease
[5]; normoxic control calves
  RV mRNA abundance (BNP, skeletal muscle alpha-actin) of control calves: not affected
[6]
  bioavailability: 2%
Normoxic control calves [7]; Normoxic #2 calf, vorinostat administration, Study Day 14
  RV Fractional area change (FAC): 50.9%
Normoxic control calves [7]; based on echo and hemodynamic criteria
  adverse cardiac effects: no evidence for adverse cardiac effects
Normoxic control calves [7]; control (normoxic vorinostat-treated) calf, day 14, M-mode
  RV fractional shortening: 50%
Normoxic control calves [7]; control normoxic calves, vorinostat treatment
  echocardiographic evidence of negative impacts on cardiac function: not associated with echocardiographic evidence of negative impacts on cardiac function
[8]; [18]
  Cardiac Output: 5.5 L/min
  Mean PA Pressure: 97.6 mm Hg
  PA Pulse Pressure: 38.9 mm Hg
  Systolic PA Pressure: 118.5 mm Hg
[8]; [19]
  PA pulse pressure compared to untreated hypoxic calf: tended toward reduced; also recorded: substantially reduced
  PA systolic pressure compared to untreated hypoxic calf: tended toward reduced; also recorded: slightly reduced
  cardiac output compared to untreated hypoxic calf: increased; also recorded: increasing
  mean PA pressure compared to untreated hypoxic calf: similar; also recorded: did not lower
[9]
  aqueous solubility: poor
Normoxic control calves [10]; [20]
  Cardiac Output: 4.4 L/min
  Mean PA Pressure: 25.1 mm Hg
  PA Pulse Pressure: 17.6 mm Hg
  Systolic PA Pressure: 34.0 mm Hg
Normoxic control calves [10]; [21]
  Cardiac Output: 5.1 L/min
  Mean PA Pressure: 19.4 mm Hg
  PA Pulse Pressure: 14.5 mm Hg
  Systolic PA Pressure: 27.1 mm Hg
Normoxic control calves [10]; compared to the authors' previous studies
  effect on hemodynamic parameters in normoxic calves: did not affect
[11]; hypertensive calves compared to untreated hypertensive calves
  lung expression of ED-A Fn, TNC, osteopontin and periostin mRNAs: tended to reduce
[11]; normoxic animals
  abundance of ED-A Fn, TNC, osteopontin and periostin mRNAs in normoxic animals: not affected
In vivo
  Tmax: ≤ 4 h
[12]; Hypoxic #1 calf, vorinostat first 5 days, Study Day 14
  RV Fractional area change (FAC): 30.1%
[12]; vorinostat-treated PH calf, apical 4-chamber echo images
  septal distortion compared to untreated PH calf: reduced septal distortion
[12]; vorinostat-treated PH calf, day 14, M-mode
  RV fractional shortening: 20%
[12]; vorinostat-treated hypoxic calf, days 4, 8, and 14
  degree of RV dysfunction compared to untreated hypoxic calf: consistently less severe
[13]
  bioavailability: 11%
[14]; data not shown
  standard blood chemistry values: within normal reference intervals
[14]; during or following active dosing, normoxic or hypoxic conditions
  adverse clinical signs attributable to vorinostat administration: No adverse clinical signs
